Data reported in patent US8604024B2, “Compounds for the reduction of beta-amyloid production” (Bristol-Myers Squibb Company, priority 2011, dated 2013).
Structures can show the parent of a compound that is named as a salt.

System: Aβ1-42 production in H4 cells stably transfected with APP751 containing the Swedish mutation
Experiment: Cellular assay for inhibition of Aβ1-42 production (H4 APP751 SWE clone 8.20)
Type: cell-based
Details: 19 h, H4 APP751 SWE clone 8.20 cells, 19 h incubation; read-out: Aβ42 cellular IC50
Protocol: Cellular Assays for Inhibition of Aβ1-40 and Aβ1-42 Production
H4 cells stably transfected with APP751 containing the Swedish mutation (H4 APP751 SWE clone 8.20, developed at BMS) were maintained in log phase through twice weekly passage at a 1:20 split. […] Following incubation for 19 h in 5% CO2 at 37° C., plates were briefly centrifuged (1000 rpm, 5 min). A 10 μl aliquot from each well was transferred to a second assay plate (Costar 3709) for Aβ40 measurements. Antibody cocktails were freshly prepared by dilution into 40 mM Tris-HCl (pH 7.4) with 0.2% BSA and added to assay plates. For Aβ42 measurements, antibodies specific for the Aβ42 neoepitope (565, developed at BMS; conjugated to the Wallac reagent (Perkin Elmer)) and the N-terminal sequence of Aβ peptide (26D6, developed at SIBIA; conjugated to APC (Perkin Elmer)) were mixed and 20 μl of the mixture was added to each well of the incubated cell plate yielding a final concentration of 0.8 ng/well 565 and 75 ng/well 26D6. For the Aβ40 measurements, antibodies specific for the Aβ40 neoepitope (TSD, developed at BMS; conjugated to the Wallac reagent (Perkin Elmer)) and 26D6 as described above were mixed and 20 μl of the mixture was added to the 10 μl aliquots which had been removed previously from the cell plate yielding a final concentration of 1.6 ng/well TSD and 17.5 ng/well 26D6. Assay plates containing antibodies were sealed with aluminum foil and incubated overnight at 4° C. Signal was determined using a Viewlux counter (Perkin Elmer) and IC50 values determined using curve fitting in CurveMaster (Excel Fit based).

Structure (SMILES)	IC50
NC1=N[C@@H]2c3cc(-c4cncnc4)ccc3CCC[C@@H]2CS1 [Example 1a, (4aS,11bS)-10-Pyrimidin-5-yl-4,4a,5,6,7,11b-hexahydro-3-thia-1-aza-dibenzo[a,c]cyclohepten-2-ylamine]	1900 nM
Cc1cc(-c2ccc3c(c2)[C@@]2(C)N=C(N)SC[C@H]2CC3)n(C)n1 (relative stereo) [Example 20, rel-(4aS,10bS)-9-(1,3-Dimethyl-1H-pyrazol-5-yl)-10b-methyl-4a,5,6,10b-tetrahydro-4H-naphtho[1,2-d][1,3]thiazin-2-amine, bis(2,2,2-trifluoroacetate)]	> 30000 nM
C[C@]12N=C(N)SC[C@H]1CCc1ccc(NC(=O)c3ncc(F)cc3F)cc12 (relative stereo) [Example 8, rel-N-((4aS,10bS)-2-Amino-10b-methyl-4a,5,6,10b-tetrahydro-4H-naphtho[1,2-d][1,3]thiazin-9-yl)-3,5-difluoropicolinamide, 2,2,2-trifluoroacetate]	3100 nM
C[C@@]12N=C(N)SC[C@@H]1CCCc1ccc(NC(=O)c3ncc(Cl)cc3Cl)cc12 [Example 45b, N-((4aR,11bR)-2-Amino-11b-methyl-4,4a,5,6,7,11b-hexahydrobenzo[6,7]cyclohepta[1,2-d][1,3]thiazin-10-yl)-3,5-dichloropicolinamide]	920 nM
C[C@]12N=C(N)SC[C@H]1CCOc1ccc(-c3c[nH]c4ccccc34)cc12 (relative stereo) [Example 30, rel-(4aS,11bS)-10-(1H-indol-3-yl)-11b-methyl-4a,5,6,11b-tetrahydro-4H-benzo[2,3]oxepino[4,5-d][1,3]thiazin-2-amine, 2,2,2-trifluoroacetate salt]	16000 nM
C[C@]12N=C(N)SC[C@H]1COc1cc(F)c(-c3cncnc3)cc12 (relative stereo) [Example 17, rel-(4aR,10bS)-8-Fluoro-10b-methyl-9-(pyrimidin-5-yl)-4,4a,5,10b-tetrahydrochromeno[4,3-d][1,3]thiazin-2-amine, bis(2,2,2-trifluoroacetate)]	3200 nM
C[C@]12N=C(N)SC[C@H]1CCCc1ccc(NC(=O)c3ccc(Cl)cn3)cc12 (relative stereo) [Example 3, 5-Chloro-pyridine-2-carboxylic acid (rel-(4aS,11bS)-2-amino-11b-methyl-4,4a,5,6,7,11b-hexahydro-3-thia-1-aza-dibenzo[a,c]cyclohepten-10-yl)-amide, 2,2,2-trifluoroacetate]	34 nM
C[C@]12N=C(N)SC[C@H]1CCOc1ccc(NC(=O)c3ccc(Cl)cn3)cc12 (relative stereo) [Example 33, rel-N-((4aS,11bS)-2-amino-11b-methyl-4a,5,6,11b-tetrahydro-4H-benzo[2,3]oxepino[4,5-d][1,3]thiazin-10-yl)-5-chloropicolinamide, 2,2,2-trifluoroacetate salt]	34 nM
C[C@@]12N=C(N)SC[C@@H]1CCCc1ccc(NC(=O)c3ccc(F)cn3)cc12 [Example 43a, N-((4aR,11bR)-2-Amino-11b-methyl-4,4a,5,6,7,11b-hexahydrobenzo[6,7]cyclohepta[1,2-d][1,3]thiazin-10-yl)-5-fluoropicolinamide]	2500 nM
C[C@]12N=C(N)SC[C@H]1CCOc1ccc(Nc3ncccc3Cl)cc12 (relative stereo) [Example 37, rel-(4aS,11bS)—N10-(3-Chloropyridin-2-yl)-11b-methyl-4a,5,6,11b-tetrahydro-4H-benzo[2,3]oxepino[4,5-d][1,3]thiazine-2,10-diamine, bis(2,2,2-trifluoroacetate)]	1400 nM
CC#Cc1cncc(-c2ccc3c(c2)[C@]2(C)N=C(N)SC[C@@H]2CCO3)c1 [Example 22a, (4aR,11bR)-11b-Methyl-10-(5-(prop-1-yn-1-yl)pyridin-3-yl)-4a,5,6,11b-tetrahydro-4H-benzo[2,3]oxepino[4,5-d][1,3]thiazin-2-amine]	8200 nM
C[C@]12N=C(N)SC[C@H]1CCOc1ccc(-c3cncnc3)cc12 (relative stereo) [Example 27, rel-(4aS,11bS)-11b-methyl-10-(pyrimidin-5-yl)-4a,5,6,11b-tetrahydro-4H-benzo[2,3]oxepino[4,5-d][1,3]thiazin-2-amine, bis(2,2,2-trifluoroacetate)]	2900 nM
C[C@]12N=C(N)SC[C@H]1CCc1ccc(Br)cc12 (relative stereo) [Example 10, rel-(4aS,10bS)-9-Bromo-10b-methyl-4a,5,6,10b-tetrahydro-4H-naphtho[1,2-d][1,3]thiazin-2-amine]	13000 nM
C[C@]12N=C(N)SC[C@H]1CCOc1ccc(-c3cn[nH]c3)cc12 (relative stereo) [Example 24, rel-(4aS,11bS)-11b-methyl-10-(1H-pyrazol-4-yl)-4a,5,6,11b-tetrahydro-4H-benzo[2,3]oxepino[4,5-d][1,3]thiazin-2-amine, bis(2,2,2-trifluoroacetate)]	8100 nM
C[C@]12N=C(N)SC[C@H]1CCc1ccc(-c3cncc(Cl)c3)cc12 (relative stereo) [Example 6, rel-(4aS,10bS)-9-(5-Chloropyridin-3-yl)-10b-methyl-4a,5,6,10b-tetrahydro-4H-naphtho[1,2-d][1,3]thiazin-2-amine bis(2,2,2-trifluoroacetate)]	2600 nM
CC#Cc1cncc(-c2ccc3c(c2)[C@@]2(C)N=C(N)SC[C@H]2CCO3)c1 [Example 22b, (4aS,11bS)-11b-Methyl-10-(5-(prop-1-yn-1-yl)pyridin-3-yl)-4a,5,6,11b-tetrahydro-4H-benzo[2,3]oxepino[4,5-d][1,3]thiazin-2-amine]	1400 nM
C[C@]12N=C(N)SC[C@H]1CCCc1ccc(NC(=O)c3ccc(Cl)cn3)cc12 [Example 3a, 5-Chloro-pyridine-2-carboxylic acid ((4aS,11bS)-2-amino-11b-methyl-4,4a,5,6,7,11b-hexahydro-3-thia-1-aza-dibenzo[a,c]cyclohepten-10-yl)-amide]	8.8 nM
C[C@]12N=C(N)SC[C@H]1CCOc1ccc(NC(=O)c3ccc(F)cn3)cc12 (relative stereo) [Example 36, rel-N-((4aS,11bS)-2-Amino-11b-methyl-4a,5,6,11b-tetrahydro-4H-benzo[2,3]oxepino[4,5-d][1,3]thiazin-10-yl)-5-fluoropicolinamide, 2,2,2-trifluoroacetate salt]	85 nM
C[C@]12N=C(N)SC[C@H]1CCOc1ccc(-c3cncc4ccccc34)cc12 (relative stereo) [Example 29, rel-(4aS,11bS)-10-(isoquinolin-4-yl)-11b-methyl-4a,5,6,11b-tetrahydro-4H-benzo[2,3]oxepino[4,5-d][1,3]thiazin-2-amine, bis(2,2,2-trifluoroacetate)]	4600 nM
NC1=N[C@@H]2c3cc(-c4cncnc4)cc(F)c3OCC[C@@H]2CS1 (relative stereo) [Example 4, rel-(4aS,11bS)-8-fluoro-10-pyrimidin-5-yl-4a,5,6,11b-tetrahydro-4H-7-oxa-3-thia-1-aza-dibenzo[a,c]cyclohepten-2-ylamine]	> 30000 nM
C[C@]12N=C(N)SC[C@H]1CCOc1ccc(NC(=O)c3ccc(Cl)cn3)cc12 [Example 33a, N-((4aS,11bS)-2-amino-11b-methyl-4a,5,6,11b-tetrahydro-4H-benzo[2,3]oxepino[4,5-d][1,3]thiazin-10-yl)-5-chloropicolinamide]	35 nM
